Data: paper PMC4014597 (PLoS ONE, 2014)

Legend:
Assay type in all cases: biochemical
[1] = molecular target: T1, C-terminal catalytic domain of human DNMT3A (hDNMT3A) (Homo sapiens, UniProt Q9Y6K1); assay: DNMT3A assay (restriction-based fluorescence assay); conditions: for inhibition at 3.2 µM: 3.2 µM compound; for inhibition at 3.2 µM / inhibition at 10 µM / inhibition at 32 µM / inhibition at 100 µM: read-out: % inhibition ± SD hDNMT3A; for inhibition at 10 µM: 10 µM compound; for inhibition at 32 µM: 32 µM compound; for inhibition at 100 µM: 100 µM compound; for EC50: catalytic domain of hDNMT3A, means of at least three experiments
T1 construct: catalytic domain of human DNMT3A (residues 623–908), produced as described; made in house
T1 sequence (Q9Y6K1 627-912): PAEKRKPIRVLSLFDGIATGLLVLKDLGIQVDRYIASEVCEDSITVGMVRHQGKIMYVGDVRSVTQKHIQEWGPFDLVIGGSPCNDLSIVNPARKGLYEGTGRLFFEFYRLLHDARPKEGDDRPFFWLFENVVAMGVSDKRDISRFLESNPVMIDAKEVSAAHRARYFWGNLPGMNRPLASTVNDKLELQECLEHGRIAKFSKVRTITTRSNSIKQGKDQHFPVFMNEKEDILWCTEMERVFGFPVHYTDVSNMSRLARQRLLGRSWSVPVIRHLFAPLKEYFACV
From the text: (§1) DNMT3A enzyme inhibition was adapted from the restriction-based fluorescence assay protocol described in Ceccaldi et al.. Briefly, a 5'-labelled biotin oligonucleotide is hybridized to its complementary strand labelled with 6-carboxyfluorescein at the 3′-end into a 384 well microplate (black Optiplates; Perkin Elmer) pre-coated with avidin. The duplex contains a unique CpG site overlapping with a restriction site of a methylation sensitive restriction enzyme. The C-terminal catalytic domain of human DNMT3A (residues 623–908), produced as described, was added in each well (200 ng/well) and mixed with the chemical compounds at desired concentrations and freshly prepared AdoMet (20 µM final concentration) to start the reaction in a total volume of 50 µL. After 1 hour incubation at 37°C each well were washed three times with PBS, 0.05% Tween-20, 500 mM NaCl and three more times with PBST. Specific fluorescent signals were detected with the methylation-sensitive restriction enzyme HpyCH4IV (NEB) as described and measured on a Perkin Elmer Envision detector. The percentage of inhibition is reported. The formula used to calculate the percentage of inhibition is [(X-Y)/X]×100, where X is the signal determined in the absence of the inhibitor and Y is the signal obtained in the presence of the inhibitor. […] The non-linear regression fittings with sigmoidal dose-response (variable slope) were performed with GraphPad Prism 4.03 (GraphPad Software).

[2] = tested on: C-terminal catalytic domain of human DNMT3A (hDNMT3A); assay: as above; conditions: for selectivity for DNMT3A over G9a inhibition: G9a IC50 vs DNMT3A EC50
From the text: as §1

[3] = molecular target: T2, human G9a-like protein (GLP) (Homo sapiens, UniProt Q9H9B1); assay: GLP assay (histone methylation inhibition); conditions: 8 μM inhibitor; read-out: Percent of GLP inhibition
T2 construct: catalytic SET domain (residues 734-1235; pXC758) were purified as described; made in house
T2 sequence (Q9H9B1 765-1266): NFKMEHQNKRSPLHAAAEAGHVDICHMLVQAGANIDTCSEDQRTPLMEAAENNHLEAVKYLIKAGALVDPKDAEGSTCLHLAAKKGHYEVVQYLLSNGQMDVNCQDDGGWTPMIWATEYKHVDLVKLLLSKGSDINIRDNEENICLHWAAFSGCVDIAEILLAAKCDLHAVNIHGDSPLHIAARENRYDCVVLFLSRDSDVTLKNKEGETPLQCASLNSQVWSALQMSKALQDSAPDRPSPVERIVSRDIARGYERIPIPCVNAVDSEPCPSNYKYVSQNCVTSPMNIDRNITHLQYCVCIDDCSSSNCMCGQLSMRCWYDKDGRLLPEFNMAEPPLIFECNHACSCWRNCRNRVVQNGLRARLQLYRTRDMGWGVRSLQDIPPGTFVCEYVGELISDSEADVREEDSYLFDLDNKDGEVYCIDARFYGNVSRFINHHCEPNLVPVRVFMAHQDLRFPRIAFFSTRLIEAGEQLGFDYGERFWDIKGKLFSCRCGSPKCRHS
Procedure: GLP Assay. Recombinant human G9a-like protein (GLP) C-terminal fragment containing both the ankyrin repeats and catalytic SET domain (residues 734-1235; pXC758) were purified as described. For histone methylation inhibition, the assay was performed in 20 μL reaction containing 4.6 mM [methyl-^3H]-AdoMet, 50 μg/mL histone from calf thymus (SIGMA), 10 μg/mL (0.17 μM) GLP, 100 mM KCl, 5 mM (DTT) and 50 mM Tris-HCl pH 8.5. GLP was pre-incubated with AdoMet and 8 µM inhibitors for 5 min at 30 °C before the addition of the histone substrate. After incubation (5 min), the reaction was terminated by the addition of 20% trichloroacetic acid (TCA, Fisher Scientific). The reaction mixture was spotted on GF/A paper circles (Whatman), washed three times with 3 mL of 10% TCA and once with 3 mL of ethanol. The dried circles were subjected to liquid-scintillation counting with Cytoscint scintillant.

human DNMT1 (hDNMT1) = molecular target: T3, human DNMT1 (hDNMT1) (Homo sapiens, UniProt P26358); assay: DNMT1 assay (radioactive Flashplate methylation assay); conditions: for inhibition at 100 µM: 100 µM compound, read-out: % inhibition ± SD hDNMT1
T3 construct: His; made in house
T3 sequence (P26358 whole entry): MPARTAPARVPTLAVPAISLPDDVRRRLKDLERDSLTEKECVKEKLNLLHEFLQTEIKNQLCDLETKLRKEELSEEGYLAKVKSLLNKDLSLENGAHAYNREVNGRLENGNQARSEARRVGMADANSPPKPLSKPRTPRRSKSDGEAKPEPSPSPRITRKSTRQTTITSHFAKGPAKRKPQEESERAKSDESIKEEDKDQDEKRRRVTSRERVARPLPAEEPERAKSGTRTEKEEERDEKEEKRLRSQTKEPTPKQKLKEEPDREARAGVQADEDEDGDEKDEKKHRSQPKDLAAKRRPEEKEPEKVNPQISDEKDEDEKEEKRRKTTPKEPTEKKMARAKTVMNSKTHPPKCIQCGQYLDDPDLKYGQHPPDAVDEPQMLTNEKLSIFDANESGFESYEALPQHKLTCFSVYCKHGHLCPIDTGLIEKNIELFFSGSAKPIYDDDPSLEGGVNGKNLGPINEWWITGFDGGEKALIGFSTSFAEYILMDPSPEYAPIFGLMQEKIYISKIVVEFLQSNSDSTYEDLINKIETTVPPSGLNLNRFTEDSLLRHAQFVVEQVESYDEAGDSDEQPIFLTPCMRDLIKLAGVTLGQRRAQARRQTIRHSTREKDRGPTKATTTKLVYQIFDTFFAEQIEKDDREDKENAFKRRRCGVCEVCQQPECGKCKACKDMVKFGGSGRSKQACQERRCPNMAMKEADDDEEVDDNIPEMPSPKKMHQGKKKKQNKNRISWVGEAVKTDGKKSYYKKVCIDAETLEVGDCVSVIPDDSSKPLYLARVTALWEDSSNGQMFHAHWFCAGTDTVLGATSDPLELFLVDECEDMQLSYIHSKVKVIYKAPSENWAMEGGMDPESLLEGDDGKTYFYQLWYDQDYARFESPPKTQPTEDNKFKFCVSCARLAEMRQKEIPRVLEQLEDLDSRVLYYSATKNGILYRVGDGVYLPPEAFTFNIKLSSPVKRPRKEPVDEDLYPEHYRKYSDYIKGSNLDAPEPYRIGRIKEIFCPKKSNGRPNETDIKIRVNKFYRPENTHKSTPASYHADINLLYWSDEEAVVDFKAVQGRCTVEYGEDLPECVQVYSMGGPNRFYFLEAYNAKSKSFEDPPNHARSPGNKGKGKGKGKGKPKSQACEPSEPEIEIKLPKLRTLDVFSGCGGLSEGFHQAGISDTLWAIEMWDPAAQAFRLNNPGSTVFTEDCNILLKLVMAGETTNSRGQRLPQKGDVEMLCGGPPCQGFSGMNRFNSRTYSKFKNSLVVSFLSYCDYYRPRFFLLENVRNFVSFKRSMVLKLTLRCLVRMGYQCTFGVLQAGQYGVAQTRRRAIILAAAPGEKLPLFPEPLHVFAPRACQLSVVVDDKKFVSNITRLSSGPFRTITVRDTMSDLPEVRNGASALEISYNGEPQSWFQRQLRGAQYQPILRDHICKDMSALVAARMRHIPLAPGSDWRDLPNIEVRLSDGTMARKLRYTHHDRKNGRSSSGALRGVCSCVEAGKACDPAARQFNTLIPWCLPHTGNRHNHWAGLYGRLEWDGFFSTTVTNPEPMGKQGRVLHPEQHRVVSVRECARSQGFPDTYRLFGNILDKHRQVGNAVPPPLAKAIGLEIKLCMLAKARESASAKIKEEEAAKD
Procedure: His-DNMT1 (182 kDa, human) was cloned, expressed and purified as described by Lee et al.. The DNMT1 assay was performed according to Gros et al.. Briefly, the reaction was started by addition of 90 nM of DNMT1 on a mix containing the tested compound (up to 1% DMSO), 1 µM of a AdoMet/[methyl-^3H]-AdoMet mix in a ratio of 3-to-1 (isotopic dilution 1*:3) and 0.3 µM of biotinylated DNA duplex in 10 µL final volume. The reaction was incubated at 37°C for 2 h in reaction buffer (20 mM HEPES pH 7.2, 1 mM EDTA, 50 mM KCl, 25 µg/mL BSA). 8 µL are then transferred into a streptavidin-coated Flashplate PLUS (PerkinElmer) containing 190 µL of 20 µM AdoHcy (Sigma-Aldrich) in 50 mM Tris-HCl pH 7.4. The Flashplate was agitated at room temperature for 1 h, washed three times with 200 µL of 0.05% Tween-20 in 50 mM Tris-HCl pH 7.4 and read in 200 µL of 50 mM Tris-HCl pH 7.4 on TopCount NXT (PerkinElmer). Percentages of inhibition were calculated with the same formula as in DNMT3A assay.

CN1CCCN(c2nc(NC3CCN(Cc4ccccc4)CC3)c3ccccc3n2)CC1 [Compound 4]
inhibition at 3.2 µM [1]: 16 ± 4% | inhibition at 10 µM [1]: 39 ± 2% | inhibition at 32 µM [1]: 55 ± 3% | inhibition at 100 µM [1]: 67 ± 3% | EC50 [1]: 10 ± 2.5 µM | selectivity for DNMT3A over G9a inhibition [2]: > 40 fold | inhibition at 8 µM [3]: 0% | inhibition at 100 µM (human DNMT1 (hDNMT1)): 0%

c1ccc(CN2CCC(Nc3nc(N4CCCC4)nc4ccccc34)CC2)cc1 [Compound 10, N-(1-benzylpiperidin-4-yl)-2-(pyrrolidin-1-yl)quinazolin-4-amine]
inhibition at 3.2 µM [1]: 8 ± 4% | inhibition at 10 µM [1]: 21 ± 8% | inhibition at 32 µM [1]: 43 ± 6% | inhibition at 100 µM [1]: 70 ± 4% | EC50 [1]: 35 ± 12 µM | selectivity for DNMT3A over G9a inhibition [2]: 18 fold | selectivity for DNMT3A over DNMT1 ([2]; ratio of EC50 values): 4 fold | inhibition at 8 µM [3]: 9.2% | inhibition at 10 µM (human DNMT1 (hDNMT1); 10 µM compound): 6.5% | inhibition at 32 µM (human DNMT1 (hDNMT1); 32 µM compound): 18% | inhibition at 100 µM (human DNMT1 (hDNMT1)): 47 ± 1.7% | EC50 (human DNMT1 (hDNMT1); means of at least three experiments): 144 ± 35 µM

c1ccc(CN2CCC(Nc3nc(N4CCN(c5ccccn5)CC4)nc4ccccc34)CC2)cc1 [Compound 13]
inhibition at 3.2 µM [1]: 8 ± 1% | inhibition at 10 µM [1]: 19 ± 13% | inhibition at 32 µM [1]: 52 ± 5% | inhibition at 100 µM [1]: 62 ± 3% | EC50 [1]: 12 ± 4 µM | selectivity for DNMT3A over G9a inhibition [2]: > 40 fold | inhibition at 8 µM [3]: 3.3% | inhibition at 100 µM (human DNMT1 (hDNMT1)): 0%

c1ccc(CN2CCC(Nc3nc(N4CCN(c5ccccc5)CC4)nc4ccccc34)CC2)cc1 [Compound 14, N-(1-benzylpiperidin-4-yl)-2-(4-phenylpiperazin-1-yl)quinazolin-4-amine]
inhibition at 3.2 µM [1]: 13 ± 2% | inhibition at 10 µM [1]: 40 ± 4% | inhibition at 32 µM [1]: 54 ± 3% | inhibition at 100 µM [1]: 63 ± 4% | EC50 [1]: 9 ± 2 µM | selectivity for DNMT3A over G9a inhibition [2]: > 40 fold | inhibition at 8 µM [3]: 10% | inhibition at 100 µM (human DNMT1 (hDNMT1)): 0%
